Assay results reported in patent publication US10736898B2, “Positive allosteric modulators of the muscarinic acetylcholine receptor M4” (Vanderbilt University, priority 2017, dated 2020).

Key:
Dog CLint = assay type: in vitro ADME
Procedure: (§1) Compound 1 was evaluated in several well-known in vitro assays to investigate both metabolism and pharmacokinetics. Bidirectional permeability/efflux was determined in MDCK-MDR1 cells, which originate from transfection of Madin Darby canine kidney (MDCK) cells with the MDR1 gene. These assays were performed according to known methods as generally described in the following references: Conde-Ceide et al. ACS Med. Chem. Lett. 2015, 6, 716-720; Morris et al. J. Med. Chem. 2014, 57, 10192-10197; and Bubser et al. ACS Chem. Neurosci. 2014, 5, 920-942.

P450 2D6 = P450 2D6 (Homo sapiens, UniProt P10635); experiment: P450 2D6 inhibition; assay type: in vitro ADME
Sequence of P450 2D6 (P10635 whole entry): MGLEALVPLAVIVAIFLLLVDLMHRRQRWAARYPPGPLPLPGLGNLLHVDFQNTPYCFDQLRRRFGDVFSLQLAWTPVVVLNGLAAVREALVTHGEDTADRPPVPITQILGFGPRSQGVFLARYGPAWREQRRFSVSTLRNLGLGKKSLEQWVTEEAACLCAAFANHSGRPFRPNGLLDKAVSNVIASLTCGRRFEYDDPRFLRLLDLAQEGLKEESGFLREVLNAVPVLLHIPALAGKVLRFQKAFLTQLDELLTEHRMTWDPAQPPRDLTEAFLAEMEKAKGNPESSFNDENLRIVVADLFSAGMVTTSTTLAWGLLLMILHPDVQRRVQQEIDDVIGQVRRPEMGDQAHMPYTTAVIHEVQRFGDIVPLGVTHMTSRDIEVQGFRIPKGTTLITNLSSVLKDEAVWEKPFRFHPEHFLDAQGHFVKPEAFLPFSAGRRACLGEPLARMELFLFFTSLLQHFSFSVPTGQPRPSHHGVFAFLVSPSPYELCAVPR
Procedure: as §1

MDCK-MDR1 cells = experiment: Bidirectional permeability/efflux in MDCK-MDR1 cells; assay type: in vitro ADME, canine; conditions: efflux ratio
Procedure: as §1

MDR1 = experiment: as above; assay type: in vitro ADME, canine; conditions: dog
Procedure: as §1

Rat Fu (plasma) = assay type: in vitro ADME
Procedure: as §1

Human M4 = biological target: T1, Human M4 (Homo sapiens, UniProt P08173); experiment: mAChR M4 cell-based functional assay (calcium flux, potentiation of EC20 acetylcholine response)
T1 construct: expressed in transfected cells
T1 sequence (P08173 1-479): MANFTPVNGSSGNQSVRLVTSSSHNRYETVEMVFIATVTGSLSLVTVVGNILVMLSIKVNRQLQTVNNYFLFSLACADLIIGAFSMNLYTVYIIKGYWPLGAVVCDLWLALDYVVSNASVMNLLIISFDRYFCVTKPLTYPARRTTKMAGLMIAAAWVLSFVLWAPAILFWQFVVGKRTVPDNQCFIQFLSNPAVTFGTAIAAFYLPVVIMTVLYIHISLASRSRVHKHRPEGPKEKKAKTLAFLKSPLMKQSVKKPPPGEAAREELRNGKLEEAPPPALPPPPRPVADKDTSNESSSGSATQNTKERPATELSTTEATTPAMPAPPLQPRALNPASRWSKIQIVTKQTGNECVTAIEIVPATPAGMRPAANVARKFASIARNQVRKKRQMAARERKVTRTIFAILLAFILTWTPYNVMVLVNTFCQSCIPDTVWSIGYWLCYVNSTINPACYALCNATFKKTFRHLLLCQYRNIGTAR
Procedure: Human M4 cDNA, along with the chimeric G protein Gqi5, were transfected into Chinese hamster ovary (CHO-K1) cells purchased from the American Type Culture Collection using commercially available Lipofectamine 2000 transfection reagent (Dalby, B. et al., Methods (2004) 33(2), 95-103). hM4-Gqi5 cells were grown in Ham's F-12 medium containing 10% heat-inactivated fetal bovine serum (FBS), 20 mM HEPES, 50 μg/mL G418 sulfate (CAS #108321-42-2), and 500 μg/mL Hygromycin B. rM4-Gqi5 cells were grown in DMEM containing 10% heat-inactivated FBS, 20 mM HEPES, 400 μg/mL G418 sulfate, and 500 μg/mL Hygromycin B.
For high throughput measurement of agonist-evoked increases in intracellular calcium, CHO-K1 cells stably expressing muscarinic receptors were plated in growth medium lacking G418 sulfate and hygromycin at 15,000 cells/20 μL/well in Greiner 384-well black-walled, tissue culture (TC)-treated, clear-bottom plates (VWR). Cells were incubated overnight at 37° C. and 5% CO2. The next day, cells were washed using an ELX 405 (BioTek) with assay buffer; the final volume was then aspirated to 20 μL. […] Dye was removed by washing with the ELX 405 and the final volume was aspirated to 20 μL. Compound master plates were formatted in an 11 point concentration-response curve (CRC) format (1:3 dilutions) in 100% DMSO with a starting concentration of 10 mM using a BRAVO liquid handler (Agilent). Test compound CRCs were then transferred to daughter plates (240 nL) using the Echo acoustic plate reformatter (Labcyte, Sunnyvale, Calif.) and then diluted into assay buffer (40 μL) to a 2× stock using a Thermo Fisher Combi (Thermo Fisher Scientific, Waltham, Mass.).
Calcium flux was measured using the Functional Drug Screening System (FDSS) 6000 or 7000 (Hamamatsu Corporation, Tokyo, Japan) as an increase in the fluorescent static ratio. Compounds were applied to cells (20 μL, 2×) using the automated system of the FDSS at 2-4 seconds into the protocol and the data were collected at 1 Hz. At 144 seconds, 10 μL of an EC20 concentration of the muscarinic receptor agonist acetylcholine was added (5×), followed by the addition of 12 μL of an EC80 concentration of acetylcholine at the 230 second time point (5×). Agonist activity was analyzed as a concentration-dependent increase in calcium mobilization upon compound addition. Positive allosteric modulator activity was analyzed as a concentration-dependent increase in the EC20 acetylcholine response. […] Antagonist activity was analyzed as a concentration-dependent decrease in the EC80 acetylcholine response. Concentration-response curves were generated using a four-parameter logistical equation in XLFit curve fitting software (IDBS, Bridgewater, N.J.) for Excel (Microsoft, Redmond, Wash.) or Prism (GraphPad Software, Inc., San Diego, Calif.).

Human CLint = assay type: in vitro ADME
Procedure: as §1

P450 2C9 = P450 2C9 (Homo sapiens, UniProt P11712); experiment: P450 2C9 inhibition; assay type: in vitro ADME
Sequence of P450 2C9 (P11712 whole entry): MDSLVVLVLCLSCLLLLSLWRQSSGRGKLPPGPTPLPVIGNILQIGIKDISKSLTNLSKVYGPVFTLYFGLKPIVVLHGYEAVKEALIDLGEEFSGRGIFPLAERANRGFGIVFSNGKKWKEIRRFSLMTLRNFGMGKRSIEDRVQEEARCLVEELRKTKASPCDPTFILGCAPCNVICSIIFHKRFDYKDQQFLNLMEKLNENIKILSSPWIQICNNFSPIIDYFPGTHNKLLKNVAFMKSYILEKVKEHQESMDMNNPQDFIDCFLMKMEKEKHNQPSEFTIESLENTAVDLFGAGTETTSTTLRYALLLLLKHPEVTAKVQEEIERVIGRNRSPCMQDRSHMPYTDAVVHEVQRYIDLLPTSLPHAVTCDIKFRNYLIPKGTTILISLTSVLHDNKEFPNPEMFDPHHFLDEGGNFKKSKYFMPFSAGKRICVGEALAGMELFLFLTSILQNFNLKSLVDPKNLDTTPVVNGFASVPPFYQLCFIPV
Procedure: as §1

Dog Fu (plasma) = assay type: in vitro ADME
Procedure: as §1

P450 3A4 = P450 3A4 (Homo sapiens, UniProt P08684); experiment: P450 3A4 inhibition; assay type: in vitro ADME
Sequence of P450 3A4 (P08684 whole entry): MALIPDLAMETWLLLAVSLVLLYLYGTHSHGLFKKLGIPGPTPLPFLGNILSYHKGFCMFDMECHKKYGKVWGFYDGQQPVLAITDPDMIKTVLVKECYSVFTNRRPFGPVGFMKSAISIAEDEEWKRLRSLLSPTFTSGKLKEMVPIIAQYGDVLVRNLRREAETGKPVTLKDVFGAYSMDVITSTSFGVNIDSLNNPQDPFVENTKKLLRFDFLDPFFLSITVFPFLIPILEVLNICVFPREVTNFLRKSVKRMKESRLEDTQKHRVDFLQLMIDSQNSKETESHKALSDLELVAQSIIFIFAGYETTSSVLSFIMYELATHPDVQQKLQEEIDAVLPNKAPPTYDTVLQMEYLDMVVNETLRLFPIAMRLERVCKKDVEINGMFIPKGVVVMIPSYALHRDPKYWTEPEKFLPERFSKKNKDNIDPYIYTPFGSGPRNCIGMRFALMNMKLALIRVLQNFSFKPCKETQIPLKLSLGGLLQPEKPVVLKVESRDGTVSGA
Procedure: as §1

Rat Fu (brain) = assay type: in vitro ADME
Procedure: as §1

Human Fu (plasma) = assay type: in vitro ADME
Procedure: as §1

[1] = In vivo pharmacokinetics in rats (IV and PO)
Procedure: Compound 1 was evaluated in several in vivo studies to investigate its metabolism and pharmacokinetics.
Male Sprague-Dawley rats (n=2) weighing around 300 g were purchased from Harlon Laboratories (Indianapolis, Ind.) and implanted with catheters in the carotid artery and jugular vein. For intravenous (IV) administration, male Sprague-Dawley rats (n=2) were each administered a single 0.2 mg/kg dose of the test article via a jugular cannula and then blood samples were collected via a carotid artery catheter at 0.033, 0.117, 0.25, 0.5, 1, 2, 4, 7, 12, and 24 hours post-dosing from each animal. For oral (PO) administration, fasted male Sprague-Dawley rats (n=2) were each administered a single 3 mg/kg dose of the test article via oral gavage and then blood samples were collected via a carotid artery catheter at 0.25, 0.5, 1, 2, 4, 7, 12, and 24 hours post-dosing from each animal. Upon sampling, blood was collected into chilled, EDTA-fortified tubes and immediately placed on wet ice. Samples were then centrifuged for 10 minutes at 3500 rcf (at 4° C.) to obtain plasma. The plasma samples were stored at −80° C. until analysis. During the analysis, the samples were thawed on bench at room temperature and 20 μL was transferred to 96-well plate. 120 μL of 50 nM carbamazepine in acetonitrile was added to the plasma sample to precipitate the protein and provide the internal standard. After vortex and centrifugation, 75 μL of supernatant was transferred to another 96-well plate that contained 75 μL of water. 10 μL of the diluted supernatant was injected onto an AB Sciex 4000 or 5500 LC-MS/MS system for quantitation. The detection range for analyte was 0.5 to 5000 ng/mL utilizing a quadratic curve with 1/x^2 weighting. Sciex Analyst 1.4.2 software was used for data acquisition and quantitation. Pharmacokinetic parameters were determined from individual animal data using non-compartmental analysis (Model 201) in WinNonlin (v5.3, Pharsight Corp., Mountain View, Calif.).

Question: With Cc1nc(C)c2c(n1)sc1c(NCc3ccc(C(C)(C)O)cc3)ncnc12 [Compound 1, 2-(4-(((7,9-Dimethylthieno[2,3-d:4,5-d′]dipyrimidin-4-yl)amino)methyl)phenyl)propan-2-ol] as the compound, how does the CLint scaled (Dog CLint) read?
Answer: Its CLint scaled is 1.02 L/h/kg.

Question: And the IC50 (P450 2D6)?
Answer: Its IC50 is > 30 µM.

Question: What about the “MDCK-MDR1 ER” value (MDCK-MDR1 cells) of the same compound?
Answer: The value was 1.5 (Papp A→B:.

Question: What about the Papp A→B (MDR1) of the same compound?
Answer: Its Papp A→B is 467 nm/s.

Question: What about the fraction unbound (Rat Fu (plasma)) of the same compound?
Answer: Its fraction unbound is 0.024.

Question: And the Emax at 30 µM (Human M4; % ACh maximum at 30 μM, human M4)?
Answer: Its Emax at 30 µM is 70.4%.

Question: What about the EC50 (Human M4; CHO-K1 cells with human M4 and Gqi5, increase in EC20 acetylcholine response) of the same compound?
Answer: The EC50 was 1.25 µM.

Question: And the CLint scaled (Human CLint)?
Answer: The CLint scaled was 1.56 L/h/kg.

Question: And the IC50 (P450 2C9)?
Answer: The IC50 was 17 µM.

Question: And the fraction unbound (Dog Fu (plasma))?
Answer: Its fraction unbound is 0.072.

Question: What about the IC50 (P450 3A4) of the same compound?
Answer: The IC50 was 17 µM.

Question: And the fraction unbound (Rat Fu (brain))?
Answer: The fraction unbound was 0.016.

Question: What about the fraction unbound (Human Fu (plasma)) of the same compound?
Answer: Its fraction unbound is 0.014.

Question: What about the “Rat oral F” value ([1]; 3 mg/kg PO) of the same compound?
Answer: Its value is >100%.

Question: And the clearance ([1]; male, Sprague-Dawley, plasma, rat, IV 0.2 mg/kg, read-out: Rat CLp)?
Answer: Its clearance is 0.426 L/h/kg.

Question: What about the Vd ([1]; male, Sprague-Dawley, plasma, rat, IV 0.2 mg/kg, read-out: Rat Vss) of the same compound?
Answer: Its Vd is 1.1 L/kg.

Question: What about the half-life ([1]; male, Sprague-Dawley, rat, plasma, read-out: Rat Elim. t1/2 (converted)) of the same compound?
Answer: Its half-life is 1.9 h.
